# Assay results from patent US9890147B2 (BAYER PHARMA AKTIENGESELLSCHAFT, priority 2012, dated 2018).
# Key:
# BRD4 (BD1) = biological target: T1, BRD4 (BD1) (Homo sapiens, UniProt O60885); experiment: Binding assay BRD4/acetylated peptide H4 (TR-FRET protein-protein interaction assay)
# T1 construct: with relatively long constructs also being possible, preferably amino acids 44-168; made in house; host or cells: E. coli
# Procedure, shortened: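 His6-BRD4 BD1 (aa 67-152, E. coli), usually 10 nM, with biotinylated tetra-acetylated H4 peptide in HEPES pH 7.5 buffer; 11 compound concentrations 0.1 nM–20 μM in duplicate, 10 min preincubation, 1 h at 22 °C then ≥3 h at 4 °C. TR-FRET 665/620 ratio; IC50 by 4-parameter fit.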
# MOLM-13 cells = experiment: Cell proliferation assay (alamarBlue), MOLM-13; format: cell-based; conditions: Homo sapiens, 96 hours incubation, inhibition of cell proliferation
# Procedure, shortened: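 Cells in RPMI1640/10% FCS read by alamarBlue fluorescence (ex 530, em 590 nm) after overnight 37 °C incubation, then treated at 1E-5 to 1E-8 M for 96 h. Pre-treatment values subtracted from endpoint values and compared with buffer-only wells; IC50 is 50% proliferation inhibition.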
# B16F10 cells = experiment: Cell proliferation assay (alamarBlue), B16F10; format: cell-based; conditions: Mus musculus, B16-F10, 96 hours incubation, inhibition of cell proliferation
# Procedure: (§1) In accordance with the invention, the capability of the substances to inhibit cell proliferation was determined Cell viability was determined using the alamarBlue® reagent (Invitrogen) in a Victor X3 Multilabel Reader (Perkin Elmer). The excitation wavelength was 530 nm and the emission wavelenth […].
# The B16F10 cells (ATCC, CRL-6475) were sown at a concentration of 300-500 cells/well in 100 μl growth medium (DMEM with phenol red, 10% FCS) on 96-well microtitre plates.
# (§2) After an overnight incubation at 37° C., the fluorescence values (CI values) were determined. The plates were then treated with various substance dilutions (1E-5 M, 3E-6 M, 1E-6M, 3E-7 M, 1E-7 M, 3E-8 M, 1E-8 M) and incubated at 37° C. for 72 (MV4-11-, LOX-IMVI cells), 96 (MOLM-13-, B16F10-, MDA-MB-431-, Caov-3 cells), 120 (MOLP-8-, KMS-12-PE cells) or 168 (LAPC-4 cells) hours. The fluorescence values (CO values) were then determined. For the data analysis, the CI values were subtracted from the CO values and the results were compared between cells treated with different dilutions of the substance or with buffer solution only. These were used to calculate the IC 50 values (substance concentration required for 50% inhibition of cell proliferation).
# MV4-11 cells = experiment: Cell proliferation assay (alamarBlue), MV4-11; format: cell-based; conditions: Homo sapiens, 72 hours incubation, inhibition of cell proliferation
# Procedure: as §1
# The MV4-11 cells (ATCC, CRL 9591) were sown at a concentration of 5000 cells/well in 100 μl growth medium (RPMI1640, 10% FCS) on 96-well microtitre plates.
# as §2
# LOX-IMVI cells = experiment: Cell proliferation assay (alamarBlue), LOX-IMVI; format: cell-based; conditions: Homo sapiens, 72 hours incubation, inhibition of cell proliferation
# Procedure: as §1
# The LOX-IMVI cells (NCI-60) were sown at a concentration of 1000 cells/well in 100 μl growth medium (RPMI1640, 10% FCS) on 96-well microtitre plates.
# as §2
# MOLP-8 cells = experiment: Cell proliferation assay (alamarBlue), MOLP-8; format: cell-based; conditions: Homo sapiens, 120 hours incubation, inhibition of cell proliferation
# Procedure: as §1
# The MOLP-8 cells (DSMZ, ACC 569) were sown at a concentration of 4000 cells/well in 100 μl growth medium (RPMI1640, 20% FCS) on 96-well microtitre plates.
# as §2
# KMS-12-PE cells = experiment: Cell proliferation assay (alamarBlue), KMS-12-PE; format: cell-based; conditions: Homo sapiens, 120 hours incubation, inhibition of cell proliferation
# Procedure: as §1
# The KMS-12-PE cells (DSMZ, ACC 606) were sown at a concentration of 4000 cells/well in 100 μl growth medium (RPMI1640, 20% FCS) on 96-well microtitre plates.
# as §2
# Caov-3 cells = experiment: Cell proliferation assay (alamarBlue), Caov-3; format: cell-based; conditions: Homo sapiens; inhibition of cell proliferation, Caov-3 (ovarian carcinoma), 96 hours
# Procedure: as §1
# The MDA-MB-231 cells (DSMZ, ACC 732) were sown at a concentration of 4000 cells/well in 100 μl growth medium (DMEM/Ham's F12 medium, 10% FCS) on 96-well microtitre plates. The Caov-3 cells (ATCC, HTB-75) were sown at a concentration of 2000 cells/well in 100 μl growth medium (MEM Earle's medium, 10% FCS) on 96-well microtitre plates.
# as §2
Compound,IC50 (BRD4 (BD1)) [µM],IC50 (MOLM-13 cells) [µM],IC50 (B16F10 cells) [µM],IC50 (MV4-11 cells) [µM],IC50 (LOX-IMVI cells) [µM],IC50 (MOLP-8 cells) [µM],IC50 (KMS-12-PE cells) [µM],IC50 (Caov-3 cells) [µM]
"CNC(=O)N1N=C(c2ccc(N3CCN(C)CC3)cc2)c2cc(OC(F)(F)F)ccc2CC1C (racemic) [Example 250, (±)-N,4-dimethyl-1-[4-(4-methyl-1-piperazinyl)phenyl]-8-(trifluoromethoxy)-4,5-dihydro-3H-2,3-benzodiazepine-3-carboxamide]",0.04,0.14,0.1,,,,,
"CNC(=O)N1N=C(c2ccc(N3CCN(S(C)(=O)=O)CC3)cc2)c2cc(OC)c(OC)cc2C[C@@H]1C [Example 135.1, (4S)-7,8-dimethoxy-N,4-dimethyl-1-{4-[4-(methylsulphonyl)piperazin-1-yl]phenyl}-4,5-dihydro-3H-2,3-benzodiazepine-3-carboxamide]",0.04,0.15,0.08,,,,,
"CNC(=O)N1N=C(c2ccc(N3CCN(C(C)C)CC3)cc2)c2cc(OC)c(OC)cc2CC1C (racemic) [Example 186, (±)-1-[4-(4-Isopropylpiperazin-1-yl)phenyl]-7,8-dimethoxy-N,4-dimethyl-4,5-dihydro-3H-2,3-benzodiazepine-3-carboxamide]",0.13,0.33,0.24,,,,,
"CNC(=O)N1N=C(c2ccc(N3CCNCC3)cc2)c2cc(OC)c(OC)cc2C[C@@H]1C [Example 131.1, (4S)-7,8-dimethoxy-N,4-dimethyl-1-[4-(piperazin-1-yl)phenyl]-4,5-dihydro-3H-2,3-benzodiazepine-3-carboxamide]",0.07,0.11,0.06,,,,,
"CNC(=O)N1N=C(c2ccc(N3CC(C)(O)C3)cc2)c2cc(OC)c(OC)cc2CC1C (racemic) [Example 185, (±)-1-[4-(3-hydroxy-3-methylazetidin-1-yl)phenyl]-7,8-dimethoxy-N,4-dimethyl-4,5-dihydro-3H-2,3-benzodiazepine-3-carboxamide]",0.07,0.28,0.16,,,,,
"CNC(=O)N1N=C(c2ccc(N3CC(O)C3)cc2)c2cc(OC)c(OC)cc2CC1C (racemic) [Example 184, (±)-1-[4-(3-hydroxyazetidin-1-yl)phenyl]-7,8-dimethoxy-N,4-dimethyl-4,5-dihydro-3H-2,3-benzodiazepine-3-carboxamide]",0.06,0.3,0.13,,,,,
"CNC(=O)N1N=C(c2ccc(-c3cccc(C(=O)N4CCCC4)c3)cc2)c2cc(OC)c(OC)cc2CC1C (racemic) [Example 96, (±)-7,8-dimethoxy-N,4-dimethyl-1-[3′-(pyrrolidin-1-ylcarbonyl)biphenyl-4-yl]-4,5-dihydro-3H-2,3-benzodiazepine-3-carboxamide]",0.04,0.25,,0.07,0.22,0.09,0.07,0.17
"CNC(=O)N1N=C(c2ccc(N3CCCCC3)cc2)c2cc(OC)c(OC)cc2CC1C (racemic) [Example 139, (±)-7,8-dimethoxy-N,4-dimethyl-1-[4-(piperidin-1-yl)phenyl]-4,5-dihydro-3H-2,3-benzodiazepine-3-carboxamide]",0.04,0.21,,0.13,0.38,0.13,0.11,0.31
"CNC(=O)N1N=C(c2ccc(-c3c(C)noc3C)cc2)c2cc(Cl)c(OC)cc2CC1C (racemic) [Example 157, (±)-8-chloro-1-[4-(3,5-dimethylisoxazol-4-yl)-phenyl]-7-methoxy-N,4-dimethyl-4,5-dihydro-3H-2,3-benzodiazepine-3-carboxamide]",0.21,0.09,,0.19,0.58,0.12,0.24,0.42
"CNC(=O)N1N=C(c2ccc(-n3ccc(-c4ccc(F)cc4)n3)cc2)c2cc(OC)c(OC)cc2C[C@@H]1C [Example 150.1, (4S)-1-{4-[3-(4-fluorophenyl)-1H-pyrazol-1-yl]phenyl}-7,8-dimethoxy-N,4-dimethyl-4,5-dihydro-3H-2,3-benzodiazepine-3-carboxamide]",0.11,0.23,,0.13,0.34,0.23,0.18,0.34
"CNC(=O)N1N=C(c2ccc(-c3c(C)nn(C)c3C)cc2)c2cc(OC)c(OC)cc2CC1C (racemic) [Example 51, (±)-7,8-dimethoxy-N,4-dimethyl-1-[4-(1,3,5-trimethyl-1H-pyrazol-4-yl)phenyl]-4,5-dihydro-3H-2,3-benzodiazepine-3-carboxamide]",0.03,0.21,,0.12,0.35,0.12,0.09,0.28
"CNC(=O)N1N=C(c2ccc(-n3nc(-c4ccccc4)cc3C3CC3)cc2)c2cc(OC)c(OC)cc2C[C@@H]1C [Example 148.1, (4S)-1-[4-(5-cyclopropyl-3-phenyl-1H-pyrazol-1-yl)phenyl]-7,8-dimethoxy-N,4-dimethyl-4,5-dihydro-3H-2,3-benzodiazepine-3-carboxamide]",0.03,0.08,,0.05,0.09,0.05,0.05,0.13
"CNC(=O)N1N=C(c2ccc(-c3c(C)nn(C)c3C)cc2)c2cc(OC)c(OC)cc2C[C@@H]1C [Example 51.2, (4S)-7,8-dimethoxy-N,4-dimethyl-1-[4-(1,3,5-trimethyl-1H-pyrazol-4-yl)phenyl]-4,5-dihydro-3H-2,3-benzodiazepine-3-carboxamide]",0.03,0.11,,0.05,0.17,0.05,0.04,0.13
"CNC(=O)N1N=C(c2ccc(-c3sc(C)nc3C)cc2)c2cc(OC)c(OC)cc2CC1C (racemic) [Example 46, (±)-1-[4-(2,4-dimethylthiazol-5-yl)phenyl]-7,8-dimethoxy-N,4-dimethyl-4,5-dihydro-3H-2,3-benzodiazepine-3-carboxamide]",0.03,0.19,,0.11,0.37,0.16,0.12,0.28
"CNC(=O)N1N=C(c2ccc(-n3nc(-c4ccccc4)cc3C)cc2)c2cc(OC)c(OC)cc2CC1C (racemic) [Example 147, (±)-7,8-Dimethoxy-N,4-dimethyl-1-[4-(5-methyl-3-phenyl-1H-pyrazol-1-yl)phenyl]-4,5-dihydro-3H-2,3-benzodiazepine-3-carboxamide]",0.03,0.07,,0.05,0.18,0.08,0.06,0.18
"CNC(=O)N1N=C(c2ccc(N3CCN(S(C)(=O)=O)CC3)cc2)c2cc(OC)c(OC)cc2CC1C (racemic) [Example 135, (±)-7,8-dimethoxy-N,4-dimethyl-1-{4-[4-(methylsulphonyl)piperazin-1-yl]phenyl}-4,5-dihydro-3H-2,3-benzodiazepine-3-carboxamide]",0.05,0.2,,0.12,0.36,0.13,0.12,0.3
